Results: patent US20090233999A1, “COMPOSITIONS AND THERAPEUTIC METHODS INVOLVING ISOFLAVONES AND ANALOGUES THEREOF” (NOVOGEN RESEARCH PTY LTD, priority 1999, published 2009)

Legend:
E-selectin = assay: TNFα-induced E-selectin expression on HAECs (ELISA); type: cell-based, human; details: 10 μM
Description: Inhibition of TNFα-stimulated endothelial cell activation by compounds was assessed by measuring surface expression of cell adhesion molecules with an ELISA. Human arterial endothelial cells (HAECs) in growth medium (Cell Applications Inc.) were seeded into 96-well plates at a density of 10,000 cells per well. Plates were incubated overnight at 37° C. in a humidified incubator to allow for cells to become confluent. On the morning of the experiment, TNFα (10 μl, 2 ng/ml) was added to each well, which contained 100 μl of medium. Compounds were diluted in DMSO-containing medium (2.5% DMSO) to give a compound concentration of 100 and 300 μM. Compounds were added to wells so that final concentrations were 10 and 30 μM. DMSO-containing medium alone was added to zero concentration control wells. All samples were measured in quadruplicate (4 wells per treatment).
After incubation with compound for 4 hours, medium was removed and cells were probed with either non-specific IgG or specific mouse antibodies against VCAM, ICAM or E-selectin (BD Biosciences—0.1 μg in 100 μL buffered saline with 10% heat-inactivated human serum). Adhesion molecule expression was detected by addition of sheep anti-mouse antibody/horseradish peroxidase conjugate. […] Optical density was measured at 405 nm with an ELISA reader (Titertek Multiscan, Flow Laboratories).

[1] = test system: Dark Agouti rats (air pouch); assay: Rat air pouch assay (serum-treated zymozan); type: in vivo; details: for Leucocytes in lavage fluid (×10^−7) / Polymorphs in tissue sections (per 100 squares): 4 h; for activity in the rat air pouch assay: in vivo
Description: Air pouches were raised on the dorsum of female Dark Agouti rats, approximately seven weeks of age. To promote the formation of a cellular membrane lining the inside of each pouch, the pouches were maintained by re-inflating on days 2 and 5 after the initial injection of air. On re-inflation, the pouch was first deflated to ensure the needle was positioned correctly, before being re-inflated with 2 mL of sterile air. Using this protocol, the pouches remained inflated until use on day 7, when they were injected with 0.5 ml of either test compound or vehicle control. After 15 min, air pouches were injected with serum-treated zymozan (500 μg). Lavage of the air pouch was performed at 4 h and leucocytes counted, after which the rats were killed, the air pouch excised and processed in formalin for histology. The sections were blinded to the person counting. Using a graticule with 100 squares and the 40× objective, the number of polymorphs were counted in the pouch lining at 10 different and non-adjacent sites. Group sizes were 5-6 rats. Data were analysed for statistical significance within each experiment and using an unpaired t test.

IL-6 = assay: UVB psoriasis model: immunohistochemical detection of IL-6; type: in vivo, mouse; details: 20 μM topical; 72 h; Skh:hr-1
Description: Groups of three Skh:hr-1 mice were exposed to 3×MEdD of UVB radiation, with and without topical treatment with 20 μM Cpd. 18, and were euthanased before and at 24, 48, 72 and 96 h after irradiation, and mid-dorsal skin samples were taken for histological fixation. The samples were fixed for 6 h in Histochoice (Amresco Solon, Ohio), then processed overnight in an automated formalin-ethanol-based system (Tissue Tek VIP; Bayer Diagnostics, Ferntree Gully, Australia) and embedded into paraffin blocks. Sections of 4 μm were cut onto silane-coated slides, de-waxed and rehydrated using xylene followed by graded aqueous ethanol solutions to PBS. […]
The IL-6 was detected by incubation with goat anti-mouse IL-6 antibody (R & D systems) followed biotinylated anti-goat IgG (Vector Laboratories, Burl ingame, CA), before treating with StreptABComplex/HRP (biotinylated horseradish peroxidase and streptavidin; Dako Corporation, CA) for 30 min. […]
The stained sections were examined by light microscopy at 20× magnification and images were captured digitally with a Sony Hyper HAD colour video camera (Sony, Tokyo, Japan). Stain intensity was analysed using a Leica Q500 MC image processing and analysis system (Leica, Cambridge, UK) and semi-quantitated in arbitrary image analysis units as the average intensity of 15 sequential fields across the skin section for each of 3 mice per treatment group. […]

SJL/J mice (EAE) = assay: Experimental autoimmune encephalomyelitis (EAE), PLP 139-151; type: in vivo, mouse; details: 20 μM, 100 μl topical daily
Description: EAE induction was carried by immunisation with PLP 139-151 ([…]-NH2) in incomplete Freund's adjuvant (Sigma) supplemented with 4 mg/ml of Mycobacterium tuberculosis (strain H37Ra) as described previously, Groups of 6 female mice aged 4-5 weeks old were immunised, and body weight and the development neurological signs were monitored daily for 6 weeks. Clinical signs were scored according to an established scale:
Cpd. 18 was made up to a concentration of 20 μM in a vehicle of propylene glycol-ethanol-water (1:2:1) with 0.001% DMSO). An aliquot of 100 μl either of Cpd. 18 in vehicle, or the vehicle alone, was applied to the mouse dorsum (six mice per group) for 5 days before the immunisation (with PLP 139-151) and daily post-immunisation for 48 days.

THP-1 cell viability = type: cell-based; details: human, THP-1 cells, read-out: reduction of viability of the THP-1 cells
Description: MTT is bioreduced by viable cells into a coloured formazan product that is soluble in DMSO. Thus the quantity of formazan product is directly proportional to the number of living cells in culture, and can be measured using a spectrophotometer at 570 nm. These compounds reduce MTT in the absence of cells, resulting in a change in substrate colour from yellow to purple. This activity is dependent on the reducing power of each compound and was measured at 5 concentrations (data not shown). The ability of compounds to reduce MTT was not related to their ability to inhibit NFkB-activity.

Row | SMILES | TNFα-induced E-selectin expression (E-selectin) | Leucocytes in lavage fluid (×10^−7) ([1]; 1 mM added to air pouch) | Polymorphs in tissue sections (per 100 squares) ([1]; 1 mM added to air pouch) | activity in the rat air pouch assay [1] | cytotoxicity at 30 μM (THP-1 cell viability) [%] | other results
1 | COc1ccc(C2=Cc3ccc(O)cc3OC2)cc1OC [Cpd. 18, 7-Hydroxy-3′,4′-dimethoxyisoflav-3-ene] | inhibited | 0.51 ± 0.33 ×10^−7 | 6.3 ± 1.3 | active | – | Leucocytes in lavage fluid (×10^−7) ([1]; 100 μM added to air pouch): 0.88 ± 0.30 ×10^−7; Polymorphs in tissue sections (per 100 squares) ([1]; 100 μM added to air pouch): 23.2 ± 10.4 per 100 squares; UVB-induced levels of IL-6 immunopositivity in the epidermis (IL-6): significantly reduced; disease course (SJL/J mice (EAE)): chronic relatively stable disease; severity of clinical signs (SJL/J mice (EAE); acute phase and first relapse at 28-36 days): tended to reduce the severity
2 | Oc1ccc(C2=Cc3ccc(O)c(Br)c3OC2)cc1 [Cpd. 20, 4′,7-Dihydroxy-8-bromoisoflav-3-ene] | inhibited | – | – | – | – | –
3 | Oc1ccc2c(c1)OCC(c1ccc(Br)cc1)=C2 [Cpd. 21, 4′-Bromo-7-hydroxyisoflav-3-ene] | – | – | – | – | ~10 | –
4 | COc1cccc(C2=Cc3ccc(O)cc3OC2)c1 [Cpd. 16, 7-Hydroxy-3′-methoxyisoflav-3-ene] | – | 0.53 ± 0.35 ×10^−7 | 14.1 ± 15.8 | active | ~10 | –
5 | Cc1c(O)ccc2c1OCC(c1cccc(O)c1)=C2 [Cpd. 14, 3′,7-Dihydroxy-8-methylisoflav-3-ene] | – | – | – | – | – | melting point: 130 °C
